From patent US20230189806A1, “FUNGICIDAL COMBINATIONS” (UPL Corporation Limited, priority 2021, published 2023)

Legend:
Rhizoctonia solani = assay: Seed treatment bio-efficacy against Rhizoctonia solani in inoculated soybean seeds; assay type: in vivo; details: % control of Rhizoctonia solani
Procedure: This effectiveness of all treatments as measured by percent reduction in the target phytopathogen growth, was also evaluated according to Colby's equation as below. E=X+Y−XY/100 Colby's equation If the actual/observed anti-phytopathogenic efficacy of the ipconazole and thiabendazole combination against Rhizoctonia solani growth exceeds the calculated value, then the activity of the combination is super additive, i.e., a synergistic effect exists. In this case, the efficacy which was actually observed must be greater than the value for the expected efficacy (E) calculated from the abovementioned formula. Methodology: Experiments were carried out to evaluate the bio-efficacy of combinations according to the invention of the present disclosure consisting of ipconazole and thiabendazole against Rhizoctonia solani fungi in soybean seeds. The seeds were inoculated with Rhizoctonia solani. The fungicides were tank mixed and applied as seed treatment as described in table 4 below. Spraying volume was 5 ml/kg.

S. sclerotiorum = assay: Paper towel roll method, incidence of S. sclerotiorum in inoculated soybean seeds; assay type: in vivo, Sclerotinia sclerotiorum; details: % control of S. sclerotiorum, 14 days at 25° C.
Procedure: Colby Calculation: This effectiveness of all treatments as measured by percent reduction in the target phytopathogen growth, was also evaluated according to Colby's equation as below. E=X+Y−XY/100 Colby's equation If the actual/observed anti-phytopathogenic efficacy of the ipconazole and thiabendazole combination against S. sclerotiorum exceeds the calculated value, then the activity of the combination is super additive, i.e., a synergistic effect exists. In this case, the efficacy which was actually observed must be greater than the value for the expected efficacy (E) calculated from the abovementioned formula. Methodology: To evaluate the incidence of the pathogen S. sclerotiorum in soybean seeds, the laboratory paper towel roll method was used. A paper towel on a flat surface was placed and moistened with water until it was thoroughly damp. A sample size of a total of 100 soybean seeds in rows were placed on the towel. The seeds were inoculated with the fungal pathogen. The seeds were pre-treated as per the treatments mentioned in the Table 5. A second towel was moistened and placed onto the first paper towel, leaving the seeds sandwiched between the two towels. It was observed that air space in between the two towels was maintained, if not, excessive water should be removed. The two towels were rolled with the seeds in-between and place in a sealed container that retained the moisture. The paper rolls were placed upright and incubated for 14 days in an incubator at 25° C. and at a 12 h photoperiod in plastic bags, which is used to maintain humidity during the incubation. For each treatment, 400 seeds were analyzed, 8 repetitions with 50 seeds each repetition.

SMILES | Observed efficacy of demethylation inhibitor fungicide (%) (Rhizoctonia solani; ipconazole 2 g a.i./100 kg seed) | Observed efficacy of demethylation inhibitor fungicide (%) (Rhizoctonia solani; ipconazole 3 g a.i./100 kg seed) | Observed efficacy of demethylation inhibitor fungicide (%) (S. sclerotiorum; ipconazole 5.6 g a.i./100 kg seed) | Observed efficacy of demethylation inhibitor fungicide (%) (S. sclerotiorum; ipconazole 7.78 g a.i./100 kg seed) | Observed efficacy of β-tubulin assembly inhibitor fungicide (%) (Rhizoctonia solani; thiabendazole 12 g a.i./100 kg seeds) | Observed efficacy of β-tubulin assembly inhibitor fungicide (%) (Rhizoctonia solani; thiabendazole 18 g a.i./100 kg seeds) | Observed efficacy of β-tubulin assembly inhibitor fungicide (%) (S. sclerotiorum; thiabendazole 30.9 g a.i./100 kg seed) | Observed efficacy of β-tubulin assembly inhibitor fungicide (%) (S. sclerotiorum; thiabendazole 61.9 g a.i./100 kg seed)
CC(C)C1CCC(Cc2ccc(Cl)cc2)C1(O)Cn1cncn1 (centres unmarked) [Ipconazole] | 49.05 | 67.92 | 21.3 | 6.7 | – | – | – | –
c1ccc2[nH]c(-c3cscn3)nc2c1 [Thiabendazole] | – | – | – | – | 43.39 | 56.60 | 14.6 | 67.4
